Data taken from US20250186405A1, “Compound For Use In Treating Narcolepsy” (Alkermes, Inc., priority 2023, published 2025).
Several values for one entry are separate records, joined by “and”; a condition that tells them apart may be missing. Equal entries are not always repeated.

System: subjects with narcolepsy type-1 (NT1)
Test: Part 4 POC NT1: treatment-emergent adverse events, single doses, crossover
Assay type: in vivo, human
Protocol: Subjects were randomized to 1 of 4 sequences.
Each subject received three doses of Compound A, including 1, 3, and 8 mg, and a single dose of placebo. […] All subjects underwent the washout period and completed all 4-way randomized crossover periods.
With one exception, each subject received three doses of Compound A, including 1, 3, and 8 mg, and a single dose of placebo. One patient withdrew from the study after the first dose due to venous access complications. […] With the exception of one patient as noted above, all subjects underwent the washout period and completed all 4-way randomized crossover periods.

## CS(=O)(=O)N[C@H]1CCCN2C(=O)COc3ccccc3C3CCC(CC3)OCC12 (stereo partly drawn) [Compound A, N-[(4S,4aR,7α,10α)-1,2,3,4,4a,5,7,8,9,10,16,17-dodecahydro-17-oxo-7,10-ethanopyrido[1,2-d][1,7,4]benzodioxaazacyclotridecin-4-yl]methanesulfonamide]
3 mg (N = 9)
  TEAE by Highest Relationship: Related: 3 (33.3) n (%)
  TEAE by Highest Severity: Mild: 5 (55.6) n (%)
  TEAE by Highest Severity: Moderate: 0 n (%)
  TEAE by Highest Severity: Severe: 0 n (%)
8 mg (N = 4)
  AE Leading to Study Drug Discontinuation: 0 n (%)
  Any SAEs: 0 n (%)
  Any TEAE: 4 (100) n (%) and 4 n (%)
  Death: 0 n (%)
  TEAE Anaemia: 0 n (%)
  TEAE Application site dermatitis: 1 n (%)
  TEAE Blood pressure increased: 1 n (%)
  TEAE Bruxism: 1 n (%)
  TEAE Dermatitis contact: 0 n (%)
  TEAE Dizziness: 1 n (%)
  TEAE Hyperhidrosis: 1 n (%)
  TEAE Hyperlipidaemia: 0 n (%)
  TEAE Insomnia: 3 n (%)
  TEAE Pollakiuria: 2 n (%)
  TEAE Procedural anxiety: 0 n (%)
  TEAE Salivary hypersecretion: 2 n (%)
  TEAE Vascular access site injury: 0 n (%)
  TEAE Vessel puncture site bruise: 0 n (%)
  TEAE by Highest Relationship: Not Related: 0 n (%)
  TEAE by Highest Relationship: Related: 4 (100) n (%)
  TEAE by Highest Severity: Mild: 4 (100) n (%)
  TEAE by Highest Severity: Moderate: 0 n (%)
  TEAE by Highest Severity: Severe: 0 n (%)
8 mg (N = 10)
  AE Leading to Study Drug Discontinuation: 0 n (%)
  Any SAEs: 0 n (%)
  Any TEAE: 9 (90.0) n (%)
  Death: 0 n (%)
  TEAE Anaemia: 0 n (%)
  TEAE Application site dermatitis: 1 (10.0) n (%)
  TEAE Back pain: 1 (10.0) n (%)
  TEAE Blood pressure increased: 1 (10.0) n (%)
  TEAE Bruxism: 1 (10.0) n (%)
  TEAE Decreased appetite: 1 (10.0) n (%)
  TEAE Dehydration: 0 n (%)
  TEAE Dermatitis contact: 0 n (%)
  TEAE Dizziness: 2 (20.0) n (%)
  TEAE Haemoglobin decreased: 1 (10.0) n (%)
  TEAE Headache: 0 n (%)
  TEAE Hyperhidrosis: 1 (10.0) n (%)
  TEAE Hyperlipdaemia: 0 n (%)
  TEAE Insomnia: 3 (30.0) n (%)
  TEAE Middle Insomnia: 3 (30.0) n (%)
  TEAE Nausea: 2 (20.0) n (%)
  TEAE Pollakiuria: 4 (40.0) n (%)
  TEAE Salivary hypersecretion: 3 (30.0) n (%)
  TEAE Sinus tachycardia: 1 (10.0) n (%)
  TEAE Vascular access site injury: 0 n (%)
  TEAE Vessel puncture site bruise: 2 (20.0) n (%)
  TEAE Vessel puncture site pain: 2 (20.0) n (%)
  TEAE by Highest Relationship: Not Related: 0 n (%)
  TEAE by Highest Relationship: Related: 9 (90.0) n (%)
  TEAE by Highest Severity: Mild: 8 (80.0) n (%)
  TEAE by Highest Severity: Moderate: 1 (10.0) n (%)
  TEAE by Highest Severity: Severe: 0 n (%)
NT1, 1, 3 and 8 mg
  Tolerability: well tolerated
Total (N = 4)
  AE Leading to Study Drug Discontinuation: 0 n (%)
  Any SAEs: 0 n (%)
  Any TEAE: 4 (100) n (%) and 4 n (%)
  Death: 0 n (%)
  TEAE Anaemia: 0 n (%)
  TEAE Application site dermatitis: 2 n (%)
  TEAE Blood pressure increased: 1 n (%)
  TEAE Bruxism: 1 n (%)
  TEAE Dermatitis contact: 1 n (%)
  TEAE Dizziness: 1 n (%)
  TEAE Hyperhidrosis: 1 n (%)
  TEAE Hyperlipidaemia: 0 n (%)
  TEAE Insomnia: 3 n (%)
  TEAE Pollakiuria: 2 n (%)
  TEAE Procedural anxiety: 1 n (%)
  TEAE Salivary hypersecretion: 2 n (%)
  TEAE Vascular access site injury: 1 n (%)
  TEAE Vessel puncture site bruise: 1 n (%)
  TEAE by Highest Relationship: Not Related: 0 n (%)
  TEAE by Highest Relationship: Related: 4 (100) n (%)
  TEAE by Highest Severity: Mild: 4 (100) n (%)
  TEAE by Highest Severity: Moderate: 0 n (%)
  TEAE by Highest Severity: Severe: 0 n (%)
Total (N = 10)
  Any TEAE: 9 (90.0) n (%)
  TEAE Anaemia: 0 n (%)
  TEAE Application site dermatitis: 2 (20.0) n (%)
  TEAE Back pain: 1 (10.0) n (%)
  TEAE Blood pressure increased: 1 (10.0) n (%)
  TEAE Bruxism: 1 (10.0) n (%)
  TEAE Decreased appetite: 2 (20.0) n (%)
  TEAE Dehydration: 1 (10.0) n (%)
  TEAE Dermatitis contact: 2 (20.0) n (%)
  TEAE Dizziness: 2 (20.0) n (%)
  TEAE Haemoglobin decreased: 1 (10.0) n (%)
  TEAE Headache: 0 n (%)
  TEAE Hyperhidrosis: 1 (10.0) n (%)
  TEAE Hyperlipdaemia: 0 n (%)
  TEAE Insomnia: 3 (30.0) n (%)
  TEAE Middle Insomnia: 3 (30.0) n (%)
  TEAE Nausea: 2 (20.0) n (%)
  TEAE Pollakiuria: 4 (40.0) n (%)
  TEAE Salivary hypersecretion: 3 (30.0) n (%)
  TEAE Sinus tachycardia: 1 (10.0) n (%)
  TEAE Vascular access site injury: 1 (10.0) n (%)
  TEAE Vessel puncture site bruise: 3 (30.0) n (%)
  TEAE Vessel puncture site pain: 2 (20.0) n (%)
